Source: paper PMC2597681 (Biochemistry, 2008)
Like-named read-outs stand apart in the source and are kept apart here.

Key:
[1] = biological target: bovine heart mitochondrial complex I (ubiquinol-NAD+ oxidoreductase activity) (Bos taurus, UniProt P03887+P17694); details: ref [27]; cited from earlier work
ND1 subunit [2] = biological target: T1, ND1 subunit (Bos taurus, UniProt P03887+P17694); assay: Suppression of specific photoaffinity labeling of the ND1 subunit by [125I]TDA; type: binding, bovine; details: [125I]TDA 3 nM; SMP 0.3 mg of protein/mL
[3] = biological target: T2, bovine heart mitochondrial complex I (NADH-ubiquinone oxidoreductase) (Bos taurus, UniProt P03887+P17694); assay: NADH oxidase activity in SMP; type: biochemical
[4] = tested on: 49 kDa subunit and an unidentified subunit of complex I; assay: Suppression of specific binding of [125I]AFP to SMP; design: species or system bovine; details: [125I]AFP 6 nM; competitor 60, 600 or 6,000 nM; SMP 1.0 mg of protein/mL
[5] = biological target: T2, bovine heart mitochondrial complex I (NADH-ubiquinone oxidoreductase); details: ref [27]; cited from earlier work
ND1 subunit [6] = biological target: T1, ND1 subunit; details: ref [19]; cited from earlier work

T1 sequence (P03887 whole entry): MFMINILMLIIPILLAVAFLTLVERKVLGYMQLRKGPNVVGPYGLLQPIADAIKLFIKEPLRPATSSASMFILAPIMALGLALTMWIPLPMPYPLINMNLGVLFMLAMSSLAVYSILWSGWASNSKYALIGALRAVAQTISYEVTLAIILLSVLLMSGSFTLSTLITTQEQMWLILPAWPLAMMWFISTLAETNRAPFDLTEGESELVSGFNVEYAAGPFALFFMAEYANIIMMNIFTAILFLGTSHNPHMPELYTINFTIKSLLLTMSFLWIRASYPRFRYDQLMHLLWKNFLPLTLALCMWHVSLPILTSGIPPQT
T1 sequence (P17694 34-463): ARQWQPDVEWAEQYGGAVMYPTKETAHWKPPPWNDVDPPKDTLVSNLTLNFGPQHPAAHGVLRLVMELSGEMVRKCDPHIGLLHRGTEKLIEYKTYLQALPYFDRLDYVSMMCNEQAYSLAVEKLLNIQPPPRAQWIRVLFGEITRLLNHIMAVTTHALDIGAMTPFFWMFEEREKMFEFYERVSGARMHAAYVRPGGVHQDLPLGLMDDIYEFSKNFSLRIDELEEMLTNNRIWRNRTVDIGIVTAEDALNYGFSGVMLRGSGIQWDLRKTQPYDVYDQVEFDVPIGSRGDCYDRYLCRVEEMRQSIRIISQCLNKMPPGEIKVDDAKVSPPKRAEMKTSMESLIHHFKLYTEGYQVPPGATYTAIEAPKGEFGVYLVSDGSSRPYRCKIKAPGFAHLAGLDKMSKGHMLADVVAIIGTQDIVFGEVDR
T1 sequence (P42026 38-216 partner): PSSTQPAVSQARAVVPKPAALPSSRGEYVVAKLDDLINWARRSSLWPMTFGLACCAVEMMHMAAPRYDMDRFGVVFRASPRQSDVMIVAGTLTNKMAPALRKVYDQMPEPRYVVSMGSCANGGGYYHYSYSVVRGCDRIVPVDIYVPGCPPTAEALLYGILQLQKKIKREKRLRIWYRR
T2 sequence (P17694 34-463): as the sequence (P17694 34-463) above
T2 sequence (P03887 whole entry): as the sequence (P03887 whole entry) above
T2 sequence (P42026 38-216 partner): as the sequence (P42026 38-216 partner) above
Sequence of bovine heart mitochondrial complex I (ubiquinol-NAD+ oxidoreductase activity) (P17694 34-463): as the sequence (P17694 34-463) above
Sequence of bovine heart mitochondrial complex I (ubiquinol-NAD+ oxidoreductase activity) (P03887 whole entry): as the sequence (P03887 whole entry) above
Sequence of bovine heart mitochondrial complex I (ubiquinol-NAD+ oxidoreductase activity) (P42026 38-216 partner): as the sequence (P42026 38-216 partner) above

| SMILES | IC50 (R)/IC50 (F), ratio of IC50 (reverse)/IC50 (forward) [1] | IC50 values, Reverse electron transfer [1] | Suppression of specific binding of [125I]TDA to ND1 (in words) (ND1 subunit [2]) | IC50 [3] | Suppression of specific labeling of the two subunits by [125I]AFP (in words) [4] | IC50 values, Forward electron transfer [5] | Suppression of specific binding of [125I]TDA to ND1 (in words) (ND1 subunit [6]) |
| --- | --- | --- | --- | --- | --- | --- | --- |
| CCCCCCCCCCC(O)C1CCC(C2CCC(C(O)CCCCCCCCCCC(O)CC3=CC(C)OC3=O)O2)O1 (stereo not drawn) [Bullatacin, bullatacin] | 0.61 | 28 ± 4.4 pmol inhibitor/mg of protein | suppressed the specific binding more efficiently than the piperazines | 850 pM | suppressed the radiolabeling | 46 ± 5.2 pmol inhibitor/mg of protein |  |
| Cc1nn(C)c(Oc2ccccc2)c1C=NOCc1ccc(C(=O)OC(C)(C)C)cc1 [fenpyroximate] |  |  |  |  | suppressed the radiolabeling |  | completely suppress |
| C/C=C(\C)[C@H](O)[C@H](C)/C=C(C)/C=C/C/C(C)=C/Cc1nc(OC)c(OC)c(O)c1C [piericidin A] | 0.59 | 48 ± 4.3 pmol inhibitor/mg of protein |  |  |  | 81 ± 7.1 pmol inhibitor/mg of protein | completely suppress |
| CC(C)(C)c1ccc(CSc2cnn(C(C)(C)C)c(=O)c2Cl)cc1 [pyridaben] |  |  |  |  | suppressed the radiolabeling |  | completely suppress |
| C=C(C)[C@H]1Cc2c(ccc3c2O[C@@H]2COc4cc(OC)c(OC)cc4[C@@H]2C3=O)O1 [rotenone] |  |  |  |  | suppressed the radiolabeling |  |  |
